{"source": "ChEMBL document CHEMBL1151438", "about": "“In vitro resistance study of rupintrivir, a novel inhibitor of human rhinovirus 3C protease” (Antimicrob Agents Chemother, 2007)", "key": {"rhinovirus B14 [1]": {"system": "rhinovirus B14", "test": "Ratio of EC50 for HRV14 infected in human H1-HeLa cells after 9 passages for 48 days to EC50 for wild type HRV14 infected in human H1-HeLa cells", "type": "functional"}, "rhinovirus B14 [2]": {"system": "rhinovirus B14", "test": "Antiviral activity against HRV14 with 3C protease A121A/V, T129A, T131A, T143P, Y139Y/H mutation infected in human H1-HeLa cells assessed as virus-induced cytopathic effect after 11 passages for 65 days by XTT assay", "type": "functional, organism-based", "details": "Rhinovirus B"}, "rhinovirus B14 [3]": {"system": "rhinovirus B14", "test": "Ratio of EC50 for HRV14 infected in human H1-HeLa cells after 10 passages for 55 days to EC50 for wild type HRV14 infected in human H1-HeLa cells", "type": "functional"}, "rhinovirus A2 [4]": {"system": "rhinovirus A2", "test": "Ratio of EC50 for HRV2 with 3C protease N165T mutation infected in human H1-HeLa cells after 6 passages for 37 days to EC50 for wild type HRV2 infected in human H1-HeLa cells", "type": "functional"}, "rhinovirus A2 [5]": {"system": "rhinovirus A2", "test": "Ratio of EC50 for HRV2 infected in human H1-HeLa cells after 4 passages for 24 days to EC50 for wild type HRV2 infected in human H1-HeLa cells", "type": "functional"}, "rhinovirus A39 [6]": {"system": "rhinovirus A39", "test": "Ratio of EC50 for HRV39 infected in human H1-HeLa cells after 9 passages for 50 days to EC50 for wild type HRV39 infected in human H1-HeLa cells", "type": "functional"}, "rhinovirus A39 [7]": {"system": "rhinovirus A39", "test": "Antiviral activity against HRV39 with 3C protease S105T, N130K, L136F mutation infected in human H1-HeLa cells assessed as virus-induced cytopathic effect after 9 passages for 50 days by XTT assay", "type": "functional, organism-based", "details": "Rhinovirus A"}, "rhinovirus B14 [8]": {"system": "rhinovirus B14", "test": "Ratio of EC50 for HRV14 infected in human H1-HeLa cells after 8 passages for 40 days to EC50 for wild type HRV14 infected in human H1-HeLa cells", "type": "functional"}, "rhinovirus A39 [9]": {"system": "rhinovirus A39", "test": "Ratio of EC50 for HRV39 infected in human H1-HeLa cells after 6 passages for 33 days to EC50 for wild type HRV39 infected in human H1-HeLa cells", "type": "functional"}, "Human rhinovirus sp.": {"system": "Human rhinovirus sp.", "test": "Antiviral activity against wild type HRV Hanks infected in human H1-HeLa cells assessed as virus-induced cytopathic effect after 4 days by plaque reduction assay", "type": "functional, organism-based", "details": "96 h"}, "rhinovirus A2 [10]": {"system": "rhinovirus A2", "test": "Ratio of EC50 for HRV2 infected in human H1-HeLa cells after 1 passage for 6 days to EC50 for wild type HRV2 infected in human H1-HeLa cells", "type": "functional"}, "rhinovirus B14 [11]": {"system": "rhinovirus B14", "test": "Antiviral activity against HRV14 with 3C protease Y139H mutation infected in human H1-HeLa cells assessed as virus-induced cytopathic effect after 3 days by XTT assay", "type": "functional, organism-based", "details": "Rhinovirus B, 72 h"}, "rhinovirus A39 [12]": {"system": "rhinovirus A39", "test": "Ratio of EC50 for HRV39 infected in human H1-HeLa cells after 3 passages for 14 days to EC50 for wild type HRV39 infected in human H1-HeLa cells", "type": "functional"}, "rhinovirus B14 [13]": {"system": "rhinovirus B14", "test": "Ratio of EC50 for HRV14 with 3C protease T131A mutation infected in human H1-HeLa cells to EC50 for wild type HRV14 infected in human H1-HeLa cells", "type": "functional"}, "rhinovirus B14 [14]": {"system": "rhinovirus B14", "test": "Ratio of EC50 for HRV14 infected in human H1-HeLa cells after 1 passage for 6 days to EC50 for wild type HRV14 infected in human H1-HeLa cells", "type": "functional"}, "rhinovirus B14 [15]": {"system": "rhinovirus B14", "test": "Ratio of EC50 for HRV14 with 3C protease T129T/A, T131T/A, T143P/S mutation infected in human H1-HeLa cells after 3 passages for 14 days to EC50 for wild type HRV14 infected in human H1-HeLa cells", "type": "functional"}, "rhinovirus A2 [16]": {"system": "rhinovirus A2", "test": "Ratio of EC50 for HRV2 infected in human H1-HeLa cells after 9 passages for 62 days to EC50 for wild type HRV2 infected in human H1-HeLa cells", "type": "functional"}, "rhinovirus A39 [17]": {"system": "rhinovirus A39", "test": "Ratio of EC50 for HRV39 infected in human H1-HeLa cells after 5 passages for 29 days to EC50 for wild type HRV39 infected in human H1-HeLa cells", "type": "functional"}, "rhinovirus A2 [18]": {"system": "rhinovirus A2", "test": "Ratio of EC50 for HRV2 infected in human H1-HeLa cells after 8 passages for 52 days to EC50 for wild type HRV2 infected in human H1-HeLa cells", "type": "functional"}, "rhinovirus A2 [19]": {"system": "rhinovirus A2", "test": "Antiviral activity against HRV2 with 3C protease N165T mutation infected in human H1-HeLa cells assessed as virus-induced cytopathic effect after 4 passages for 24 days by XTT assay", "type": "functional, organism-based", "details": "Rhinovirus A, 576 h"}, "rhinovirus A39 [20]": {"system": "rhinovirus A39", "test": "Ratio of EC50 for HRV39 infected in human H1-HeLa cells after 2 passages for 12 days to EC50 for wild type HRV39 infected in human H1-HeLa cells", "type": "functional"}, "rhinovirus B14 [21]": {"system": "rhinovirus B14", "test": "Antiviral activity against 0.02 MOI wild type HRV14 infected in human H1-HeLa cells assessed as cell killing after 3 days by XTT assay", "type": "functional"}, "rhinovirus B14 [22]": {"system": "rhinovirus B14", "test": "Antiviral activity against HRV14 with 3C protease T129A, T131T/A, T143P mutation infected in human H1-HeLa cells assessed as virus-induced cytopathic effect after 5 passages for 22 days by XTT assay", "type": "functional, organism-based", "details": "Rhinovirus B, 528 h"}, "rhinovirus A2 [23]": {"system": "rhinovirus A2", "test": "Ratio of EC50 for HRV2 infected in human H1-HeLa cells after 6 passages for 37 days to EC50 for wild type HRV2 infected in human H1-HeLa cells", "type": "functional"}, "rhinovirus B14 [24]": {"system": "rhinovirus B14", "test": "Ratio of EC50 for HRV14 with 3C protease with A121A/V, T129A, T131A, T143P, Y139Y/H mutation infected in human H1-HeLa cells after 11 passages for 65 days to EC50 for wild type HRV14 infected in human H1-HeLa cells", "type": "functional"}, "rhinovirus B14 [25]": {"system": "rhinovirus B14", "test": "Ratio of EC50 for HRV14 with 3C protease Y139H mutation infected in human H1-HeLa cells to EC50 for wild type HRV14 infected in human H1-HeLa cells", "type": "functional"}, "rhinovirus A2 [26]": {"system": "rhinovirus A2", "test": "Ratio of EC50 for HRV2 infected in human H1-HeLa cells after 10 passages for 66 days to EC50 for wild type HRV2 infected in human H1-HeLa cells", "type": "functional"}, "rhinovirus A2 [27]": {"system": "rhinovirus A2", "test": "Antiviral activity against HRV2 with 3C protease E3E/G, A103A/V, N165T mutation infected in human H1-HeLa cells assessed as virus-induced cytopathic effect after 9 passages for 62 days by XTT assay", "type": "functional, organism-based", "details": "Rhinovirus A"}, "rhinovirus A39 [28]": {"system": "rhinovirus A39", "test": "Ratio of EC50 for HRV39 with 3C protease […], L136/F mutation infected in human H1-HeLa cells after 5 passages for 29 days to EC50 for wild type HRV39 infected in human H1-HeLa cells", "type": "functional"}, "rhinovirus A2 [29]": {"system": "rhinovirus A2", "test": "Antiviral activity against HRV2 infected in human H1-HeLa cells assessed as virus-induced cytopathic effect after 3 passages for 17 days by XTT assay", "type": "functional, organism-based", "details": "Rhinovirus A, 408 h"}, "rhinovirus A39 [30]": {"system": "rhinovirus A39", "test": "Antiviral activity against wild type HRV39 infected in human H1-HeLa cells assessed as virus-induced cytopathic effect after 3 days by XTT assay", "type": "functional, organism-based", "details": "Rhinovirus A, 72 h"}, "rhinovirus A2 [31]": {"system": "rhinovirus A2", "test": "Ratio of EC50 for HRV2 with 3C protease N165T mutation infected in human H1-HeLa cells after 4 passages for 24 days to EC50 for wild type HRV2 infected in human H1-HeLa cells", "type": "functional"}, "rhinovirus B14 [32]": {"system": "rhinovirus B14", "test": "Antiviral activity against HRV14 with 3C protease T129A, T131A, T143P, Y139Y/H mutation infected in human H1-HeLa cells assessed as virus-induced cytopathic effect after 10 passages for 55 days by XTT assay", "type": "functional, organism-based", "details": "Rhinovirus B"}}}
{"smiles": "CCOC(=O)/C=C/[C@H](C[C@@H]1CCNC1=O)NC(=O)[C@@H](CC(=O)[C@@H](NC(=O)c1cc(C)on1)C(C)C)Cc1ccc(F)cc1", "note": "[RUPINTRIVIR]", "values": [{"measurement": "Ratio EC50", "setting": "rhinovirus B14 [1]", "value": 60}, {"measurement": "EC50", "setting": "rhinovirus B14 [2]", "value": 335, "unit": "nM"}, {"measurement": "Ratio EC50", "setting": "rhinovirus B14 [3]", "value": 90}, {"measurement": "Ratio EC50", "setting": "rhinovirus A2 [4]", "value": 2}, {"measurement": "Ratio EC50", "setting": "rhinovirus A2 [5]", "value": 5}, {"measurement": "Ratio EC50", "setting": "rhinovirus A39 [6]", "value": 6}, {"measurement": "EC50", "setting": "rhinovirus A39 [7]", "value": 94, "unit": "nM"}, {"measurement": "Ratio EC50", "setting": "rhinovirus B14 [8]", "value": 40}, {"measurement": "Ratio EC50", "setting": "rhinovirus A39 [9]", "value": 6}, {"measurement": "EC50", "setting": "Human rhinovirus sp.", "value": 19, "unit": "nM"}, {"measurement": "Ratio EC50", "setting": "rhinovirus A2 [10]", "value": 1}, {"measurement": "EC50", "setting": "rhinovirus B14 [11]", "value": 14, "unit": "nM"}, {"measurement": "Ratio EC50", "setting": "rhinovirus A39 [12]", "value": 6}, {"measurement": "Ratio EC50", "setting": "rhinovirus B14 [13]", "value": 1}, {"measurement": "Ratio EC50", "setting": "rhinovirus B14 [14]", "value": 3.5}, {"measurement": "Ratio EC50", "setting": "rhinovirus B14 [15]", "value": 7}, {"measurement": "Ratio EC50", "setting": "rhinovirus A2 [16]", "value": 15}, {"measurement": "Ratio EC50", "setting": "rhinovirus A39 [17]", "value": 6}, {"measurement": "Ratio EC50", "setting": "rhinovirus A2 [18]", "value": 15}, {"measurement": "EC50", "setting": "rhinovirus A2 [19]", "value": 44, "unit": "nM"}, {"measurement": "Ratio EC50", "setting": "rhinovirus A39 [20]", "value": 4}, {"measurement": "Activity", "setting": "rhinovirus B14 [21]", "value": 90.2, "unit": "%"}, {"measurement": "EC50", "setting": "rhinovirus B14 [22]", "value": 96, "unit": "nM"}, {"measurement": "Ratio EC50", "setting": "rhinovirus A2 [23]", "value": 5}, {"measurement": "Ratio EC50", "setting": "rhinovirus B14 [24]", "value": 16}, {"measurement": "Ratio EC50", "setting": "rhinovirus B14 [25]", "value": 1}, {"measurement": "Ratio EC50", "setting": "rhinovirus A2 [26]", "value": 15}, {"measurement": "EC50", "setting": "rhinovirus A2 [27]", "value": 140, "unit": "nM"}, {"measurement": "Ratio EC50", "setting": "rhinovirus A39 [28]", "value": 3}, {"measurement": "EC50", "setting": "rhinovirus A2 [29]", "value": 34, "unit": "nM"}, {"measurement": "EC50", "setting": "rhinovirus A39 [30]", "value": 24, "unit": "nM"}, {"measurement": "Ratio EC50", "setting": "rhinovirus A2 [31]", "value": 2}, {"measurement": "EC50", "setting": "rhinovirus B14 [32]", "value": 324, "unit": "nM"}]}
